Assay results published in patent US7205162B1, “Artificial antibodies, method of producing the same and use thereof” (priority 1995, dated 2007).

Key:
[1] = Molecularly Imprinted Sorbent Assay (MIA), competitive binding of 3H-diazepam to anti-diazepam polymer; conditions: molar ratio of diazepam to ligand giving 50% inhibition of 3H-diazepam binding to polymer; ligands added to drug free serum
[2] = system: natural antibodies (Ab's) against diazepam; conditions: data from ref 24; cited from earlier work
[3] = Molecularly Imprinted Sorbent Assay (MIA), competitive binding of 3H-theophylline to anti-theophylline polymer; conditions: for Cross-reaction (%) ArtAb, Theophylline antibodies: molar ratio of theophylline to ligand giving 50% inhibition of 3H-theophylline binding to polymer, ligands added to drug free serum
[4] = system: natural antibodies (Ab's) against theophylline; conditions: data from ref 22; cited from earlier work
[5] = Scatchard plot analysis with radio-labelled ligand, anti-diazepam polymer
Text: (§1) The equilibrium dissociation constants (KD) for binding of the drugs to the corresponding polymers were estimated by Scatchard plot analysis using radio-labelled ligands.

[6] = Scatchard plot analysis with radio-labelled ligand, anti-theophylline polymer; format: binding; conditions: LIGAND programme
Text: as §1

SMILES	Cross-reaction (%) ArtAb, Diazepam antibodies [1] [%]	Cross-reaction (%) Ab**, Diazepam antibodies [2] [%]	Cross-reaction (%) ArtAb, Theophylline antibodies [3] [%]	Cross-reaction (%) Ab*, Theophylline antibodies [4] [%]	further results
Cc1nnc2n1-c1ccc(Cl)cc1C(c1ccccc1)=NC2 [Alprazolam]	40	44	–	–	–
O=c1[nH]c(=O)c2[nH]cnc2[nH]1 [Xanthine]	–	–	<1	<1	–
O=C1Nc2ccc(Cl)cc2C(c2ccccc2Cl)=NC1O (stereo not shown) [Lorazepam]	4	1	–	–	–
Cn1c(=O)[nH]c(=O)c2[nH]cnc21 [3-Methylxantin, 3-methylxanthine]	–	–	7	2	cross-reactivity in MIA for theophylline (in words) [3]: some cross-reactivity
CN1C(=O)CN=C(c2ccccc2)c2cc(Cl)ccc21 [Diazepam]	100	100	–	–	Kd ([5]; read-out: KD, high affinity binding sites, LIGAND programme): 37.6 nM; Kd ([5]; read-out: KD, low affinity binding sites, LIGAND programme): 73.6 nM
Cn1c(=O)[nH]c2[nH]c(=O)[nH]c2c1=O [1-Methyluric acid]	–	–	<1	<1	–
Cn1c(=O)c2[nH]c(=O)[nH]c2n(C)c1=O [1,3-Dimethyluric acid]	–	–	<1	<1	–
O=C1CN=C(c2ccccc2Cl)c2cc([N+](=O)[O-])ccc2N1 [Clonazepam]	9	5	–	–	–
O=c1[nH]cnc2nc[nH]c12 [Hypoxanthine]	–	–	<1	<1	–
O=C1CN=C(c2ccccc2)c2cc(Cl)ccc2N1 [Demethyldiazepam, Desmethyldiazepam]	27	32	–	–	–
Cn1c(=O)c2[nH]cnc2n(C)c1=O [[^3H]-theophylline]	–	–	–	–	time to binding equilibrium ([3]; 12.5 mg polymer, acetonitrile-acetic acid (99/1), room temperature): 8 h; share of the binding occurred within 3 h ([3]; within 3 h, acetonitrile-acetic acid (99/1), room temperature): 80%; share of the binding occurred within 5 h ([3]; within 5 h, acetonitrile-acetic acid (99/1), room temperature): 90%
Cn1c(=O)c2[nH]cnc2n(C)c1=O [Theophylline, 1,3-dimethylxanthine]	–	–	100	100	Kd ([6]; read-out: KD, high affinity binding sites): 346 nM; Kd ([6]; read-out: KD, low affinity binding sites): 65500 nM
Cn1c(=O)c2c(ncn2CCO)n(C)c1=O [7-(β-Hydroxyethyl)-1,3-di-methylxanthine]	–	–	<1	<1	–
CNC1=Nc2ccc(Cl)cc2C(c2ccccc2)=[N+]([O-])C1 [Chlordiazepoxid]	2	<1	–	–	–
O=c1[nH]c(=O)c2[nH]c(=O)[nH]c2[nH]1 [Uric acid]	–	–	<1	<1	–
Cn1cnc2c1c(=O)[nH]c(=O)n2C [Theobromine, 3,7-dimetylxanthine]	–	–	–	<1	–
